US12285433B2, “Diltiazem for use in the treatment of microbial infections” (UNIVERSITE CLAUDE BERNARD LYON 1, priority 2018, dated 2025)

Key:
[1] = tested on: human parainfluenza virus type 3 (strain C243 ATCC VR-93); test: hPIV-3 replication in reconstituted human respiratory epithelia (cytopathic effect, TEER, TCID50 titration in LLC-MK2 cells); assay type: cell-based; details: MOI 0.1, 90 μM basolateral daily
Experimental: Reconstituted human respiratory epithelia were infected with human parainfluenza virus type 3 (strain C243 ATCC VR-93) at an MOI of 0.1, and treatment of the basolateral medium with 90 μM diltiazem was started 2 hours post-infection and continued daily for 4 consecutive days. Transepithelial electrical resistance (TEER), which reflects the integrity of the epithelium, was measured once daily from 48 h post-infection to 120 hours post-infection.
Apical infectious viral titers (TCID50/mL) were determined in LLC-MK2 cells from washings collected starting 48 h post-infection (hpi), and up to 120 hpi, as shown in FIG. 5A.

[2] = tested on: IFIT1, IFIT2, IFIT3, IF127, IFN-λ1, IFN-λ2, IF144L and IFITM1 genes; test: RT-qPCR confirmation of induction of 8 genes associated with the type III interferon response; assay type: cell-based, human; details: 90 μM via basolateral pole, 3 days
[3] = tested on: respiratory syncytial virus (RSV); test: RSV challenge infection in BALB/c mouse model, pulmonary viral titers by RT-qPCR (F gene); assay type: in vivo; details: BALB/c mice, 5×10^5 PFU RSV intranasally; 50 mg/kg per os, 5 treatments; day 5 post-infection
Experimental: FIG. 4D schematically represents the chronology of infection and treatment of the mice: • BALB/c mice were randomized into 3 groups of 5 individuals and then infected intranasally with 50 μL of a viral suspension containing 5×10^5 PFU of RSV (Day 0). Six hours before infection, the mice were treated with either 40 mg/kg intraperitoneal ribavirin (RSV RIB) or 50 mg/kg diltiazem peros (RSV DIL), or PBS (RSV PBS) as negative control. • The same treatments were repeated every 24 h, with a total of 3 treatments for ribavirin and 5 treatments for diltiazem or PBS. • On day 5 post-infection (D5, corresponding to the peak of viral replication), the mice in each group were euthanized and their lungs were aseptically recovered to measure their pulmonary viral titers by RTqPCR (F gene).
RT-qPCR quantification of the RSV viral genome copy number (quantifying the copies of the F gene) relative to the total amount of RNA extracted from the lungs at 5 days post-infection was performed, and the results are presented in FIG. 4E.
The following statistical tests were used: One-way ANOVA with Bonferroni post-test to compare each virus to the mock condition (PBS treatment). *p<0.05.

[4] = tested on: recombinant hMPV-GFP virus (strain C-85473); test: hMPV replication in reconstituted human respiratory epithelia (GFP epifluorescence, RT-qPCR of N gene); assay type: cell-based, human metapneumovirus; details: MOI 0.1
Experimental: Viral replication in reconstituted human epithelial models (MucilAir® HAE, Epithelix) of nasal origin was studied on epithelia treated or not treated with diltiazem. To that end, (i) fluorescence light microscopy photos were used to evaluate the efficacy and progression of the infection and (ii) quantification of the viral genome by RTqPCR was performed, on the one hand at the apical pole of the epithelium (surface harvesting) to quantify the excretion of viral progeny, and on the other hand in the total lysates of epithelial cells at end point (day 5 post-infection) to quantify intracellular viral replication within the epithelium.
Human respiratory epithelia (Mucilair, Epithelix) were infected with a recombinant hMPV-GFP virus (strain C-85473) at an MOI of 0.1, then treated (via the basolateral medium of the epithelia) or not with 3 successive doses of diltiazem at 90 μM at D0, D1 and D3 post-infection (3 epithelia per condition).
Epifluorescence microscopy observations were performed on D4 post-infection to observe the impact of diltiazem treatment on viral replication (FIG. 7B).
On day 3 post-infection, a wash at the apical pole of the infected epithelium, treated or not, was performed in order to harvest the viral progeny produced. The genomic viral RNA was extracted and quantified by RT-qPCR (Biosystems™ PowerUp™ SYBR™ Green, Thermo Fisher Scientific) using a plasmid containing the HMPV N gene. The results are expressed in copies of the N gene/μg RNA extracted (FIG. 7C).
On day 5 post-infection, epithelial cells were harvested and lysed to extract total RNA. Total RNAs corresponding to the hMPV N viral gene were quantified by Rt-qPCR (Biosystems™ PowerUp™ SYBR™ Green, Thermo Fisher Scientific), using a range made from a plasmid containing the HMPV N gene. The results are expressed in copies of the N gene/μg RNA extracted (FIG. 7D).

[5] = tested on: interferon lambda 1 (IL-29); test: ELISA measurement of interferon lambda 1 (IL-29) secretion by reconstituted human respiratory epithelia; assay type: cell-based; details: ELISA after 72 h; 90 μM via basolateral pole, 3 administrations
Experimental: (§1) Reconstituted human respiratory epithelia (MucilAir® HAE, Epithelix) were maintained in culture at the air-liquid interface according to the instructions of the supplier Epithelix and were treated or not with diltiazem (90 μM) via their culture medium at their basolateral pole. The diltiazem treatment was repeated for 3 consecutive days (3 administrations in total).
Secretion levels (pg/mL) of interferon lambda 1 (IL-29) at the apical and basolateral poles of human respiratory epithelia treated and untreated with diltiazem were measured by ELISA after 72 h of treatment according to the supplier's instructions (#3570-1H, Mabtech, Stockholm, Sweden).

[6] = tested on: IFN-λ2 (IFNL2) gene; test: In vivo induction of IFN-λ2 (IFNL2) gene expression after intranasal instillation in BALB/c mice (RT-qPCR); details: 20 mg/kg intranasal, D0/D1/D2 or D0/D2/D4, sampled D5
[7] = tested on: respiratory syncytial virus (Long strain, ATCC VR-26); test: RSV replication in infected reconstituted human respiratory epithelia (RT-qPCR, F gene); assay type: cell-based; details: MOI 1; 90 μM basolateral, 4 administrations from 5 hpi; 6 days post-infection
Experimental: Reconstituted human respiratory epithelia (MucilAir® HAE, Epithelix) were maintained in culture at the air-liquid interface according to the instructions of the supplier Epithelix and were infected with respiratory syncytial virus (Long strain, ATCC VR-26) at a multiplicity of infection (MOI) 1, then treated or not with diltiazem (90 μM) via their culture medium at their basolateral pole. Diltiazem treatment was performed at 5 hours post-infection and then repeated for 3 consecutive days (4 administrations in total).
At 6 days post-infection, samples at the apical pole of treated and untreated infected epithelia, as well as the epithelia themselves, were lysed with 150 μL of RLT buffer (Qiagen). The process of the experiment is schematically represented in FIG. 4A.
Total RNA was extracted using the RNeasy Kit (Qiagen), according to the supplier's instructions, for quantification of viral genome copy number (F gene) by RT-qPCR at the apical pole, i.e. in the supernatant (FIG. 4B), as well as in the epithelia (FIG. 4C).

[8] = tested on: genes encoding the type III interferons IFN-λ1, IFN-λ2 and IFN-λ3; test: RNAseq expression of type III interferon genes and response genes, basolateral treatment of reconstituted human respiratory epithelia (MucilAir HAE); assay type: cell-based; details: 90 μM via basolateral pole, 3 days (3 administrations)
Experimental: as §1, with “Epithelix)” for “Epithelix) were”, “Epithelix,” for “Epithelix and”
Treated and untreated epithelia were then lysed with 150 μL of RLT buffer (Qiagen). […] Each library was amplified, quantified and indexed with primers provided in the ScriptSeq™ Index PCR Primers Kit (RSBC10948, Epicentre) and sequenced. Sequencing was conducted on an Illumina HiSeq 2500 system with a minimum requirement of 40 million “reads” sequenced per sample.
The demultiplexing of the data and the conversion of the BCL files resulting from the sequencing into FASTQ files were carried out using Illumina's bcl2fastq tool, in its version 1.8.4. […] A pseudo-alignment of the trimmed reads on the human genome (Homo Sapiens: GRCh38.p11) using the Kallisto software was performed, followed by a statistical analysis using the R 3.3.1 software and the EdgeR 3.14.0 package.
The differential in gene expression between epithelial cells treated with diltiazem and control epithelial cells was calculated using a linear model with a p-value correction by the Benjamini-Hochberg method. […]

Structure (SMILES): COc1ccc([C@@H]2Sc3ccccc3N(CCN(C)C)C(=O)[C@@H]2OC(C)=O)cc1 [diltiazem]
- transepithelial electrical resistance (TEER), integrity of the epithelium ([1]; 48 to 120 hpi): integrity appears to be more preserved
- cytopathic effects induced by hPIV-3 (microscopy) ([1]; 96 and 120 hpi): greater and easily visible microscopically in untreated reconstituted human respiratory epithelia, unlike those treated with diltiazem
- infectious viral titer at the apical surface at 96 h post-infection ([1]; untreated 10^7): 10^5 TCID50/mL
- expression of the IFIT1, IFIT2, IFIT3, IF127, IFN-λ1, IFN-λ2, IF144L and IFITM1 genes compared with untreated epithelia [2]: significant increase
- pulmonary viral titers (RSV F gene copies, RT-qPCR) compared with PBS control group and ribavirin-treated group [3]: significantly reduced pulmonary viral titers
- fluorescence corresponding to viral expression of GFP (epifluorescence microscopy) ([4]; 90 μM basolateral at D0, D1, D3, D4 post-infection): very few fluorescent cells
- reduction of viral genome (N gene) in epithelia (total lysate) versus untreated epithelia ([4]; 90 μM basolateral at D0, D1, D3, day 5 post-infection): 4 log 10
- reduction of viral genome (N gene) in apical supernatants versus untreated epithelia ([4]; 90 μM basolateral, day 3 post-infection): 2 log 10
- IFN-λ1 (IL-29) secretion at the apical pole [5]: very sharply increased
- IFN-λ1 (IL-29) secretion at the basolateral pole [5]: significant, but less marked, increase
- IFN-λ2 (IFNL2) gene expression in nasal cavities relative to mock-treated mice [6]: activates the IFN III pathway
- amount of RSV viral genome (F gene) in the culture supernatant (apical pole) compared with untreated epithelia [7]: much lower
- amount of RSV viral genome (F gene) in the epithelium compared with untreated epithelia [7]: much lower
- expression of type III interferon response genes (IF144L, IFIT1, IFIT2, IFIT3, IFITM1, ISG15, MX1, MX2, OAS1, OAS2, OAS3, OASL, RSAD2, STAT1) [8]: significantly stimulates the expression
